In the NIST ThermoML archive (doi:10.1021/je060457+):

How the values were obtained:
[1] = 101 kPa, Liquid; for viscosity: Capillary tube (Ostwald / Ubbelohde) method; for mass density: Vibrating tube method
[2] = refractive index (Na D-line) (dimensionless); details: 101.33 kPa, Liquid, Standard Abbe refractometry
[3] = xn = mol fraction of the nth substance listed; details: 101 kPa, Liquid, x2 = 0; for viscosity: Capillary tube (Ostwald / Ubbelohde) method; for mass density: Vibrating tube method
[4] = refractive index (Na D-line) (dimensionless); xn = mol fraction of the nth substance listed; details: 101 kPa, Liquid, Standard Abbe refractometry, x2 = 0

CNCCO [2-(methylamino)ethanol]
Details | mass density, [1] [kg/m3] | refractive index, [2] | viscosity, [1] [mPa·s]
293.15 K | – | 1.4393 | –
298.15 K | 936.18 | 1.4375 | 10.51
303.15 K | 932.26 | 1.4356 | 8.522
308.15 K | – | 1.4339 | –
313.15 K | 924.42 | 1.4318 | 5.833
318.15 K | – | 1.4298 | –
323.15 K | 916.48 | 1.4278 | 4.177
333.15 K | 908.46 | – | 3.108
343.15 K | 900.3 | – | 2.385

O [water] + CNCCO
Details | mass density, [3] [kg/m3] | refractive index, [4] | viscosity, [3] [mPa·s]
293.15 K | – | 1.3331 | –
298.15 K | – | 1.3326 | 0.8824
303.15 K | – | 1.332 | 0.8047
308.15 K | – | 1.3314 | –
313.15 K | 992.26 | 1.3307 | 0.6596
318.15 K | – | 1.3299 | –
323.15 K | 988.05 | 1.3291 | 0.5507
333.15 K | 983.19 | – | 0.4703
343.15 K | 977.78 | – | 0.4074
